Patent publication US20180106782A1, “HIGH THROUGHPUT CARDIOTOXICITY SCREENING PLATFORM” (The Board of Trustees of the Leland Stanford Junior …, priority 2016, published 2018)

Test system: μpatterned hiPSC-CMs
Assay: sarcomere length (sl) and sarcomere shortening (ss) from videos of labeled myofibrils
Format: cell-based, human
Settings: for average values of sl (sarcomere length): single cell with labeled myofibrils (FIG. 7A, 7E)
Description: We analyzed videos of beating patterned hiPSC-CMs with LifeAct-labeled myofibrils (Ribeiro 2015a) to quantify the organization and dynamics of sarcomeres along myofibrils. Sarcomere shortening and movement during the contractile cycle was determined from analyzing how the size of all labeled sarcomeres in a single hiPSC-CM varies during each of its contractile cycles. The minimal length that separates two proximal Z-lines defines sarcomere size. LifeAct labels actin between Z-lines, which correspond to dark lines in LifeAct-labeled myofibrils. (Ribeiro 2015a) Therefore, the minimal distance between adjacent dark lines in LifeAct-labeled myofibrils defines sarcomere size. We used four different approaches to quantify sarcomere size along LifeAct-labeled myofibrils from frames of single beating hiPSC-CMs (FIG. 12) and used the second approach for performing better when analyzing videos with minimal user intervention.
The second approach (FIG. 12B) is a novel method that we developed to determine sarcomere lengths in each frame without the need of curve-fitting procedures or radial Fourier transforms. The approach consists of automatically measuring the length of the segment between adjacent Z-lines that is parallel to the direction of myofibril alignment (FIG. 15). The algorithm for this approach measured the length from Z-line i to Z-line i+1 using information on myofibril orientation in the region around Z-line i and Z-line i+1 and considering a skeleton of sarcomeres generated as previously detailed for the first approach. The algorithm developed first a map of all points that compose the sarcomere skeleton and each point was taken once as a starting location of a path along the direction of myofibril orientation that stopped when another Z-line in the skeleton was reached (FIG. 15). The length between adjacent Z-lines was therefore defined as the Euclidean distance between start and end points calculated with this method (FIG. 15). The path was calculated pixel by pixel within the skeletonized image. For each new pixel of the path, the algorithm evaluated what the other pixel of the path was based on the local orientation of the myofibril. For pixels that were starting points or pixels already in a path, the local orientation angle of myofibrils was taken as the deciding factor to determine the next path pixel. In the algorithm, we particularly defined that the y direction of the path could be chosen freely, but only pixels in the +x direction could be candidates for the next element of the path (FIG. 15). This definition derived from the fact that every point composing the skeleton was considered as a starting point and because orientations of myofibrils are in the [0,Th] range. In relation to a known point of a path, the next neighboring pixel to be included as the next element of that path could be the pixel on the right, on the top, on the bottom, on the top right or on the bottom right (FIG. 15-B). Given this condition, a 10° angle or a 0° angle of known myofibril orientation lead to the same decision for the next pixel to include in the path: the pixel on the right. We estimated the local orientation of myofibrils through the MATLAB-written code RIDGEORIENT. (Kovesi 2000) This tool indicates the principle ridge direction through local gradient variations. By definition, the gradient is […] to the main orientation. (Krause 2009)
The global orientation of a myofibril between Z-lines was also taken in consideration for deciding the next pixel in the path between Z-lines (FIG. 15) because small angles can add up during the extending of the line defined by the path and better reveal the real myofibril orientation. For example, starting at a pixel on a Z-line (x1, y1) with a local orientation angle θ1=10°, the next pixel would have to be (x1+1, y1). If θ2=10°, the next pixel would again be to the right, adding (x1+2, y1) to the path. […]

COC(=O)N1CCN(Cc2cccc(NC(=O)Nc3ccc(C)nc3)c2F)CC1 [omecamtiv mecarbil]
maximal average sl (chronic and acute effects of omecamtiv mecarbil (FIG. 7F)): decrease
minimum average sl (chronic and acute effects of omecamtiv mecarbil (FIG. 7G)): decrease
average ss (chronic and acute effects of omecamtiv mecarbil (FIG. 7H)): decrease
average values of sl (sarcomere length): decreased

CC(C)NCC(O)c1ccc(O)c(O)c1 (stereo not shown) [isoproterenol]
minimal average sl (0.1 μM isoproterenol): decreased
ss (sarcomere shortening) (0.1 μM isoproterenol (FIG. 7D)): considerably increased
minimal average sl (1 μM isoproterenol): decrease even more
increase of ss (sarcomere shortening) (1 μM isoproterenol (FIG. 7D)): not with 1 μM
maximal mean values of sl (1 μM isoproterenol, relative to before adding (FIG. 7B)): decreased
average values of sl (sarcomere length): decreased
